# Laboratory results as given in ChEMBL document CHEMBL5728383, “Isoquinoline ether compounds as mGluR4 allosteric potentiators, compositions, and methods of treating neurological dysfunction” (2021).
# Target: Metabotropic glutamate receptor 4 (Homo sapiens, UniProt Q14833)
# Experiment: Receptor Activity Assay: The disclosed compounds and compositions can be evaluated for their ability to act as a potentiator of metabotropic glutamate receptor activity, in particular mGluR4 activity, by any suitable known methodology known in the art. For example, Chinese Hamster Ovary (CHO) cells transfected with human mGluR4 or HEK cells co-transfected with rat mGuR4 and the G-protein regulated Inwardly Rectifying Potassium channel (GIRK) were plated in clear bottom assay plates for assay in a Hamamatsu FDSS Fluorometric Plate Reader. The cells were loaded with either a Ca2+-sensitive fluorescent dye or the thallium responsive dye and the plates were washed and placed into a suitable kinetic plate reader. For human mGuR4 assays, a fluorescence baseline was established for 3-5 seconds, the disclosed compounds were then added to the cells, and the response in cells was measured. Approximately two and a half minutes later, a concentration of mGuR4 orthosteric agonist (e.g. glutamate or L-AP4) eliciting approximately 20% (EC20) of the maximal agonist response was added to the cells, and the response was measured. Two minutes later, a concentration of mGluR4 agonist (e.g. glutamate or L-AP4) eliciting 80% (EC80) of the maximal agonist response was added to the cells, and the response was measured. For rat mGuR4/GIRK experiments, a baseline was established for approximately five seconds, disclosed compounds were added, and either an EC20 or EC80 concentration of agonist was added approximately two and one half minutes later.
# Metabotropic glutamate receptor 4, sequence (Q14833 whole entry): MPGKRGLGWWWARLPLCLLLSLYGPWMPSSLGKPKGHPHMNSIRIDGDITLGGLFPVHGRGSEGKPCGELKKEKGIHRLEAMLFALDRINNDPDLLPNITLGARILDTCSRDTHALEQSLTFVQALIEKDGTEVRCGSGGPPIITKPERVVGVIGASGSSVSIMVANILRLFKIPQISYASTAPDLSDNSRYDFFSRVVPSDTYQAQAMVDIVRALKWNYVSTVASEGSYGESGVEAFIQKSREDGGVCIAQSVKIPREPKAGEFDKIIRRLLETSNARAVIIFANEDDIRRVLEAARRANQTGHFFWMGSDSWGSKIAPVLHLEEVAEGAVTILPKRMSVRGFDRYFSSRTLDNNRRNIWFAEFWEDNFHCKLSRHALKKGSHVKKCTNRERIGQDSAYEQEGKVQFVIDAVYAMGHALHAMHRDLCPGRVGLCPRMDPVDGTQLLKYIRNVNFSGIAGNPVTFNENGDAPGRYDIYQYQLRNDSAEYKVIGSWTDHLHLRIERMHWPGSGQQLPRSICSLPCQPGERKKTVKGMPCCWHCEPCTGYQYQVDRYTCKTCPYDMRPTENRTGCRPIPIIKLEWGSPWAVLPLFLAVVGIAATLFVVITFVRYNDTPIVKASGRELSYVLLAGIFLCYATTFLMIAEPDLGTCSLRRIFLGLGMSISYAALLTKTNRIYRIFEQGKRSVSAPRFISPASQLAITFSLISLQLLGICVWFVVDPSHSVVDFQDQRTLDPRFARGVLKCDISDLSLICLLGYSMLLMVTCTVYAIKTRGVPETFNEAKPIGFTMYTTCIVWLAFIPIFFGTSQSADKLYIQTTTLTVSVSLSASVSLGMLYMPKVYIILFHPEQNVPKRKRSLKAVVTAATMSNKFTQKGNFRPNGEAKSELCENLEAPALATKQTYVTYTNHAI
row,Compound,EC50
1,c1cnc2c(Nc3ccc4c(OCC5COCCO5)nccc4c3)n[nH]c2c1 (stereo not drawn),12.6 nM
2,c1cnc2[nH]nc(Nc3ccc4c(OCC5CCOCC5)nccc4c3)c2c1,45.9 nM
3,c1cnc2[nH]nc(Nc3ccc4c(OCCN5CCOCC5)nccc4c3)c2c1,148 nM
4,c1cnc2c(Nc3ccc4c(OC5CCOCC5)nccc4c3)n[nH]c2c1,12.6 nM
5,COCCOc1nccc2cc(Nc3n[nH]c4ncccc34)ccc12,51.5 nM
6,c1cnc2[nH]nc(Nc3ccc4c(OCC5CCOC5)nccc4c3)c2c1 (stereo not drawn),54.3 nM
7,CO[C@H](C)COc1nccc2cc(Nc3n[nH]c4nccnc34)ccc12,17.5 nM
8,CO[C@H](C)COc1nccc2cc(Nc3n[nH]c4ncccc34)ccc12,77.1 nM
9,c1cnc2c(Nc3ccc4c(O[C@H]5CCCOC5)nccc4c3)n[nH]c2c1,27.3 nM
10,COCCOc1nccc2cc(Nc3n[nH]c4nccnc34)ccc12,35.2 nM
11,c1cc2cc(Nc3n[nH]c4nccnc34)ccc2c(O[C@H]2CCOC2)n1,22.1 nM
12,c1cnc2[nH]nc(Nc3ccc4c(O[C@H]5CCOC5)nccc4c3)c2c1,44.2 nM
13,c1cnc2c(Nc3ccc4c(OCC5CCOC5)nccc4c3)n[nH]c2c1 (stereo not drawn),12 nM
14,Fc1cnc2c(Nc3ccc4c(O[C@H]5CCOC5)nccc4c3)n[nH]c2c1,82.3 nM
15,C[C@@H]1C[C@H](Oc2nccc3cc(Nc4n[nH]c5ncccc45)ccc23)CO1,152 nM
16,COCCOc1nccc2cc(Nc3n[nH]c4cc(F)cnc34)ccc12,69 nM
17,c1cc2cc(Nc3n[nH]c4nccnc34)ccc2c(OCC2CCOCC2)n1,16.1 nM
18,Fc1cnc2c(Nc3ccc4c(OCC5COCCO5)nccc4c3)n[nH]c2c1 (stereo not drawn),35.9 nM
19,c1cnc2c(Nc3ccc4c(OCC5CCOCC5)nccc4c3)n[nH]c2c1,11.6 nM
20,C[C@H]1OCC[C@H]1Oc1nccc2cc(Nc3n[nH]c4ncccc34)ccc12,154 nM
21,COCCOc1nccc2cc(Nc3n[nH]c4cccnc34)ccc12,19.9 nM
22,c1cnc2c(Nc3ccc4c(O[C@@H]5CCCOC5)nccc4c3)n[nH]c2c1,31.9 nM

row,Compound,EC50
1,c1cnc2[nH]nc(Nc3ccc4c(O[C@@H]5CCOC5)nccc4c3)c2c1,64 nM
2,c1cc2cc(Nc3n[nH]c4nccnc34)ccc2c(O[C@@H]2CCOC2)n1,43.6 nM
3,COCCOc1nccc2cc(Nc3n[nH]c4ncc(F)cc34)ccc12,82.3 nM
4,c1cnc2[nH]nc(Nc3ccc4c(OCC5COCCO5)nccc4c3)c2c1 (stereo not drawn),121 nM
5,C[C@H]1C[C@H](Oc2nccc3cc(Nc4n[nH]c5cccnc45)ccc23)CO1,26.9 nM
6,CCOCCOc1nccc2cc(Nc3n[nH]c4cccnc34)ccc12,22.3 nM
7,C[C@H]1OCC[C@H]1Oc1nccc2cc(Nc3n[nH]c4cccnc34)ccc12,55.9 nM
8,CCOCCOc1nccc2cc(Nc3n[nH]c4nccnc34)ccc12,21.5 nM
9,Fc1cnc2[nH]nc(Nc3ccc4c(OC5CCOCC5)nccc4c3)c2c1,118 nM
10,COCCOc1nccc2cc(Nc3n[nH]c4ccccc34)ccc12,76.9 nM
11,c1cnc2c(Nc3ccc4c(O[C@@H]5CCOC5)nccc4c3)n[nH]c2c1,36.1 nM
12,CCOCCOc1nccc2cc(Nc3n[nH]c4ncccc34)ccc12,48.4 nM
13,c1cnc2c(Nc3ccc4c(OCCN5CCOCC5)nccc4c3)n[nH]c2c1,41.2 nM
14,c1cnc2[nH]nc(Nc3ccc4c(OCC5CCCCO5)nccc4c3)c2c1 (stereo not drawn),75.2 nM
15,c1cc2cc(Nc3n[nH]c4nccnc34)ccc2c(OCC2COCCO2)n1 (stereo not drawn),28.5 nM
16,c1cnc2c(Nc3ccc4c(OCC5CCCOC5)nccc4c3)n[nH]c2c1 (stereo not drawn),15.7 nM
17,C[C@H]1C[C@H](Oc2nccc3cc(Nc4n[nH]c5ncccc45)ccc23)CO1,70.7 nM
18,C[C@@H]1C[C@H](Oc2nccc3cc(Nc4n[nH]c5cccnc45)ccc23)CO1,48.3 nM
19,c1cnc2c(Nc3ccc4c(O[C@H]5CCOC5)nccc4c3)n[nH]c2c1,37.6 nM
20,c1cc2cc(Nc3n[nH]c4nccnc34)ccc2c(OCC2CCOC2)n1 (stereo not drawn),10.4 nM
21,CO[C@H](C)COc1nccc2cc(Nc3n[nH]c4cccnc34)ccc12,14.5 nM
